In PMC6234229, “The role of loops B and C in determining the potentiation of GABAA receptors by midazolam” (Pharmacology Research & Perspectives, 2018):

Key:
[1] = target: T1, α6(P161T)β2γ2 GABAA receptor (Homo sapiens, UniProt P18507+P47870+Q16445, P180T); assay: Midazolam potentiation of EC10 GABA currents, whole-cell patch clamp, HEK293T; type: cell-based; design: expressed in transfected cells; host or cells: HEK293T; conditions: for Midazolam potentiation (%): α6(P161T)
From the text: (§1) Human (Homo sapiens) GABAA subunits (α1‐6, β2, γ2s) were subcloned into pcDNA3.1+ vectors with a cytomegalovirus (CMV) promoter. The hβ2 and hα3 sequences were humanized rat (Rattus norvegicus) cDNA with amino acid substitutions made to match the human protein sequence. The α1‐3, α5, β2, and γ2s subunits were a generous gift from Neil L. Harrison (Columbia University Medical Center, NY). The α4 subunit was obtained from GenScript (Piscataway, NJ), and the α6 subunit was a generous gift from Robert L. McDonald (Vanderbilt University, TN). All point mutations (listed in Figure 1C) were introduced using the QuikChange Lightening site‐directed mutagenesis kit (Agilent Technologies, Santa Clara, CA) according to the manufacturer's instructions and were confirmed by sequencing (Eurofins MWG Operon, Louisville, KY).
(§2) Human embryonic kidney cells containing the SV40 T‐antigen (HEK293T) were acquired from American Type Culture Collection (ATCC®, Manassas, VA), catalogue number, CRL3216. HEK293T cells were maintained at 37°C and 5% CO2 in Eagle Minimum Essential Medium (MEM) supplemented with 5% fetal bovine serum (Atlanta Biologicals Inc., Flowery Branch, GA), 40 μM L‐glutamine, 100 U/mL penicillin and 0.1 mM streptomycin. Cells were passaged regularly when they reached 70% confluency using trypsin. Cells were not passaged more than 22 times. New cells were revived from frozen stocks at passage 2‐4. Cells used for in vitro electrophysiology experiments were grown on poly‐D‐lysine‐coated glass coverslips (No.2, VWR, Radnor, PA) and transfected with X‐tremeGENE (Roche Diagnostics, Indianapolis, IN) with the desired receptor subunit cDNAs at a 1:1:1 ratio to express αxβ2γ2s receptors (2 μg total cDNA) and with 0.5 μg green fluorescent protein (GFP) as an expression marker. The γ2s incorporation into receptors was tested with zinc inhibition assays regularly.24 Patch clamp experiments were performed on cells at 24‐72 hours post‐transfection. All experiments were performed at 22°C. Experiments consisted of at least five cells recorded per day from at least two transfections across 3‐4 days to control for cell health and transfection efficiency. At least three cells expressing wild‐type receptors were recorded on days that mutant receptors were tested to provide a time‐matched expression control. All reagents were purchased from Sigma‐Aldrich (St. Louis, MO) unless otherwise stated.
(§3) Extracellular solution contained 161 mM NaCl, 3 mM KCl, 1 mM MgCl2, 1.5 mM CaCl2, 10 mM HEPES, and 6 mM D‐glucose, adjusted to pH 7.4 with NaOH (320‐330 mOsm). […] The perfusion system was controlled by protocols written in pClamp 9 (Molecular Devices, LLC., Sunnyvale, CA). Whole‐cell currents were recorded at ‐60 mV, filtered at 100 Hz and sampled at 200 Hz with a MultiClamp 700B amplifier (Molecular Devices, LLC) and DigiData 1322A (Molecular Devices, LLC) digitizer. […] Cells were recorded with the midazolam protocol no more than two times to avoid desensitization and incomplete washout or irreversible modulation.
(§4) Recordings were analyzed using MATLAB (Math Works, Inc., Natick, MA). […] The maximum peak current, EC50 and Hill coefficient were estimated for assays from each cell. When Hill parameters are estimated from whole‐cell recordings, the changes in the parameters across receptor conditions can be ascribed to the following changes in receptor physiology. Changes in maximum current can be due to changes in the single‐channel conductance or the rate of desensitization. Changes in cell surface receptor expression can cause minor changes in maximum current, but are unlikely to occur in the time course of our experimental protocol. […] More often minor changes in the Hill coefficient are attributed to the altered homogeneity in the receptor population expressed by the HEK293T cell. For example, a shallower Hill coefficient could be caused by a shift in the population of receptors from mostly αβγ receptors to a combination of both αβ and αβγ receptors.

[2] = target: T2, α2(S205I)β2γ2 GABAA receptor (Homo sapiens, UniProt P18507+P47869+P47870, S233I); assay: GABA concentration-response assay, whole-cell patch clamp, HEK293T; type: cell-based; conditions: GABA Hill fit
T2 construct: expressed in transfected cells; host or cells: HEK293T
From the text: as §1, §2, §3, §4

[3] = target: T3, α2β2γ2 GABAA receptor (Homo sapiens, UniProt P18507+P47869+P47870); assay: as above; type: cell-based; conditions: GABA Hill fit
T3 construct: expressed in transfected cells; host or cells: HEK293T
From the text: as §1, §2, §3, §4

[4] = target: T4, α4β2γ2 GABAA receptor (Homo sapiens, UniProt P18507+P47870+P48169); assay: as above; type: cell-based; conditions: GABA Hill fit
T4 construct: expressed in transfected cells; host or cells: HEK293T
From the text: as §1, §2, §3, §4

[5] = target: T5, α5(P166T)β2γ2 GABAA receptor (Homo sapiens, UniProt P18507+P31644+P47870, P197T); assay: as above; type: cell-based; conditions: GABA Hill fit
T5 construct: expressed in transfected cells; host or cells: HEK293T
From the text: as §1, §2, §3, §4

[6] = target: T6, α2(H101R)β2γ2 GABAA receptor (Homo sapiens, UniProt P18507+P47869+P47870, H129R); assay: as above; type: cell-based; conditions: GABA Hill fit
T6 construct: expressed in transfected cells; host or cells: HEK293T
From the text: as §1, §2, §3, §4

[7] = target: T7, α2(T162P)β2γ2 GABAA receptor (Homo sapiens, UniProt P18507+P47869+P47870, T190P); assay: as above; type: cell-based; conditions: GABA Hill fit
T7 construct: expressed in transfected cells; host or cells: HEK293T
From the text: as §1, §2, §3, §4

[8] = target: T8, α3(S230I)β2γ2 GABAA receptor (Homo sapiens, UniProt P18507+P34903+P47870, S258I); assay: as above; type: cell-based; conditions: GABA Hill fit
T8 construct: expressed in transfected cells; host or cells: HEK293T
From the text: as §1, §2, §3, §4

[9] = target: T9, α4(R100H)β2γ2 GABAA receptor (Homo sapiens, UniProt P18507+P47870+P48169, R135H); assay: as above; type: cell-based; conditions: GABA Hill fit
T9 construct: expressed in transfected cells; host or cells: HEK293T
From the text: as §1, §2, §3, §4

[10] = target: T10, α5(H105R)β2γ2 GABAA receptor (Homo sapiens, UniProt P18507+P31644+P47870, H136R); assay: as above; type: cell-based; conditions: GABA Hill fit
T10 construct: expressed in transfected cells; host or cells: HEK293T
From the text: as §1, §2, §3, §4

[11] = target: T1, α6(P161T)β2γ2 GABAA receptor; conditions: GABA Hill fit
From the text: as §1, with “All point mutations (listed in Figure 1C) were introduced using the QuikChange Lightening site‐directed mutagenesis kit (Agilent Technologies, Santa Clara, CA) according to the manufacturer's instructions and were confirmed by sequencing (Eurofins MWG Operon, Louisville, KY).” left out
(§5) Human embryonic kidney cells containing the SV40 T‐antigen (HEK293T) were acquired from American Type Culture Collection (ATCC®, Manassas, VA), catalogue number, CRL3216. […] Experiments consisted of at least five cells recorded per day from at least two transfections across 3‐4 days to control for cell health and transfection efficiency. At least three cells expressing wild‐type receptors were recorded on days that mutant receptors were tested to provide a time‐matched expression control. […]
(§6) Extracellular solution contained 161 mM NaCl, 3 mM KCl, 1 mM MgCl2, 1.5 mM CaCl2, 10 mM HEPES, and 6 mM D‐glucose, adjusted to pH 7.4 with NaOH (320‐330 mOsm). […] Whole‐cell currents were recorded at ‐60 mV, filtered at 100 Hz and sampled at 200 Hz with a MultiClamp 700B amplifier (Molecular Devices, LLC) and DigiData 1322A (Molecular Devices, LLC) digitizer. […]

[12] = target: α6(R100H)β2γ2 GABAA receptor (Homo sapiens, UniProt P18507+P47870+Q16445, R119H); conditions: GABA Hill fit
From the text: as §1, with “All point mutations (listed in Figure 1C) were introduced using the QuikChange Lightening site‐directed mutagenesis kit (Agilent Technologies, Santa Clara, CA) according to the manufacturer's instructions and were confirmed by sequencing (Eurofins MWG Operon, Louisville, KY).” left out
as §5, §6

T1 sequence (Q16445 20-453 P180T): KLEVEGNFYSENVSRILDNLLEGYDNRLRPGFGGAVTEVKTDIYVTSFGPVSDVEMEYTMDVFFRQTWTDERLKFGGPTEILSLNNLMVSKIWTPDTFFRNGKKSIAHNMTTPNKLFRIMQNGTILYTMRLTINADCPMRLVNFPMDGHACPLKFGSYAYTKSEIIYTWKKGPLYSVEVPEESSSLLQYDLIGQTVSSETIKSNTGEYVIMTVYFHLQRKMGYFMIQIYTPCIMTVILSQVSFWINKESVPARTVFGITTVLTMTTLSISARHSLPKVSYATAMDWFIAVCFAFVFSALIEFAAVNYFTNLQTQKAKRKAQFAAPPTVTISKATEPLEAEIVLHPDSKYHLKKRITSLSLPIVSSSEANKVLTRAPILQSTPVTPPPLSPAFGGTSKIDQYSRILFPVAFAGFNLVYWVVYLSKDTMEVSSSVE
T1 sequence (P47870 26-474 isoform P47870-1 limits assumed, stated change not applied): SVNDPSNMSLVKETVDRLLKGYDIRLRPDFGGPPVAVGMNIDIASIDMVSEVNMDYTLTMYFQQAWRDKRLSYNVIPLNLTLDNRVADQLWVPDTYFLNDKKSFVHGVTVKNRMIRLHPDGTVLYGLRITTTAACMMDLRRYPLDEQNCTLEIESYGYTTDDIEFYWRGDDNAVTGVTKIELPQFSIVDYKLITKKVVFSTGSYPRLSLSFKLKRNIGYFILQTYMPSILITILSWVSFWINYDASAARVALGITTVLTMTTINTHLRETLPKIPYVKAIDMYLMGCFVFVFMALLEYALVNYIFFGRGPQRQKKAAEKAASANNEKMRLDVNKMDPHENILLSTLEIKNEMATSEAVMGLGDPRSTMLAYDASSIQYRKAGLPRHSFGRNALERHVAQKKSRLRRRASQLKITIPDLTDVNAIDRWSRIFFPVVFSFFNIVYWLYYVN
T1 sequence (P18507 40-467 isoform P18507-1 limits assumed, stated change not applied): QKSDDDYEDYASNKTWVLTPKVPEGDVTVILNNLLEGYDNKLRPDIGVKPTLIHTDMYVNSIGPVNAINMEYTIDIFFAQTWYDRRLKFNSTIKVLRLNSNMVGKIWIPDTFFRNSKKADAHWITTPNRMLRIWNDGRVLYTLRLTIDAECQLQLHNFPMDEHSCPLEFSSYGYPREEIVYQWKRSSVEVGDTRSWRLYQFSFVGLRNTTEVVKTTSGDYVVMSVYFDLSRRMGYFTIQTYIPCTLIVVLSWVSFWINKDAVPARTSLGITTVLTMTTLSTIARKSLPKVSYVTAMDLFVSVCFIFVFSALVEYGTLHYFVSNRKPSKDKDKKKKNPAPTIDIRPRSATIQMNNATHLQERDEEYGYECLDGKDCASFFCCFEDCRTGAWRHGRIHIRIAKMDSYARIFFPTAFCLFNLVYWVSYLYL
T3 sequence (P47869 29-451): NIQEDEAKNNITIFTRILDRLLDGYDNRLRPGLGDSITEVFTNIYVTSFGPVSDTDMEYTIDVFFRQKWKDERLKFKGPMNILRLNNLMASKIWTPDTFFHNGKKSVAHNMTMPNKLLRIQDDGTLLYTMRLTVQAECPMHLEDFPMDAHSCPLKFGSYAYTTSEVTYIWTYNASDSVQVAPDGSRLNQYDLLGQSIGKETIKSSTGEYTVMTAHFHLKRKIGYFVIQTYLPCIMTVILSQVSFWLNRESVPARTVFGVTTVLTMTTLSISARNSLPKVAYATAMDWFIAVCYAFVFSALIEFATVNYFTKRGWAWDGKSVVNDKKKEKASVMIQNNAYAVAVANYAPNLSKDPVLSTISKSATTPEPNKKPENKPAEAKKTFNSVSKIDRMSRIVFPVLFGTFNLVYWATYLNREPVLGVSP
T3 sequence (P47870 25-512 limits assumed): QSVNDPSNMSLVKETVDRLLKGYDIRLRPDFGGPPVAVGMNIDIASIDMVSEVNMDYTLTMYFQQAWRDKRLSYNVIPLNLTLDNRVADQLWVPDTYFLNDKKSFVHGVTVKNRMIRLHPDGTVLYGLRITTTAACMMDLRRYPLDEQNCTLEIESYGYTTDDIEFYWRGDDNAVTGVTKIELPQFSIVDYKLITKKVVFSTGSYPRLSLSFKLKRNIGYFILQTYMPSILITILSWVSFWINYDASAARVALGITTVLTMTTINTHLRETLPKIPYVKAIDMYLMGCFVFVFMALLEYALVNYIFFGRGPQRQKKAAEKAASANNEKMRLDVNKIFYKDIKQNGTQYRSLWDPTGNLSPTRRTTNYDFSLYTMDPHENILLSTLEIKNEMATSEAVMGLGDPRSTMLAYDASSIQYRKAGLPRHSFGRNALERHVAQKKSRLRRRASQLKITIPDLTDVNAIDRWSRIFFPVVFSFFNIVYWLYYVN
T3 sequence (P18507 40-467 isoform P18507-1 limits assumed): as the sequence (P18507 40-467 isoform P18507-1 limits assumed, stated change not applied) above
T10 sequence (P31644 32-462 H136R): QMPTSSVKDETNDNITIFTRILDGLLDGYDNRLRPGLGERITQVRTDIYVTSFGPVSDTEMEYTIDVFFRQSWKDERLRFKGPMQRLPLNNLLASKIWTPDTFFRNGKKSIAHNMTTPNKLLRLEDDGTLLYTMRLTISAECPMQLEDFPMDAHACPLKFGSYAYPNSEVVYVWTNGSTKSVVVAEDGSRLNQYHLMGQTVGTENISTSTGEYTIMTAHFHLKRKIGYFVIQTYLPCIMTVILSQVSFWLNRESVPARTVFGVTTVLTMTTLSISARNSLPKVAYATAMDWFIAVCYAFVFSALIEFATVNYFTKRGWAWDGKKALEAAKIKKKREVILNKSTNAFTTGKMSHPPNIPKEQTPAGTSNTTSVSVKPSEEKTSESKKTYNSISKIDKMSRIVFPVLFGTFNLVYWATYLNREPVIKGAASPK
T10 sequence (P47870 26-474 isoform P47870-1 limits assumed, stated change not applied): as the sequence (P47870 26-474 isoform P47870-1 limits assumed, stated change not applied) above
T10 sequence (P18507 40-467 isoform P18507-1 limits assumed, stated change not applied): as the sequence (P18507 40-467 isoform P18507-1 limits assumed, stated change not applied) above

SMILES: Cc1ncc2n1-c1ccc(Cl)cc1C(c1ccccc1F)=NC2 [midazolam]
- Midazolam potentiation (%) ([1]; 10 nM MDZ + EC10 GABA): 7.52 ± 3.56%
- Midazolam potentiation (%) ([1]; 50 nM MDZ + EC10 GABA): 13.89 ± 3.99%
- Midazolam potentiation (%) ([1]; 100 nM MDZ + EC10 GABA): 24.46 ± 3.86%
- Midazolam potentiation (%) ([1]; 500 nM MDZ + EC10 GABA): 17.25 ± 3.52%
- Midazolam potentiation (%) ([1]; 1000 nM MDZ + EC10 GABA): 16.98 ± 4.08%
- responsiveness to midazolam potentiation ([1]; α6(P161T)β2γ2): failed to confer midazolam responsiveness

SMILES: NCCCC(=O)O [GABA, γ‐aminobutyric acid]
- Hill coefficient [2]: 1.452 ± 0.151
- Max Current (pA) [2]: -7835 pA
- Hill coefficient [3]: 1.581 ± 0.074
- Max Current (pA) [3]: -3326 ± 356.7 pA
- Hill coefficient [4]: 1.113 ± 0.063
- Max Current (pA) [4]: -3039 ± 347.3 pA
- Hill coefficient [5]: 1.420 ± 0.064
- Max Current (pA) [5]: -4543 ± 553.0 pA
- Hill coefficient [6]: 1.443 ± 0.092
- Max Current (pA) [6]: -3186 ± 390.8 pA
- Hill coefficient [7]: 1.494 ± 0.101
- Max Current (pA) [7]: -1765 ± 246.0 pA
- Hill coefficient [8]: 1.796
- Max Current (pA) [8]: -1724 ± 286.1 pA
- Hill coefficient [9]: 1.215 ± 0.079
- Max Current (pA) [9]: -3049 ± 378.6 pA
- Hill coefficient [10]: 1.269 ± 0.084
- Max Current (pA) [10]: -6799 ± 919.2 pA
- Max Current (pA) [11]: -3540 ± 290.2 pA
- Max Current (pA) [12]: -2902 ± 349.5 pA
